Results from patent US20170143701A1, “CARBOHYDRATE METABOLISM-AMELIORATING AGENT” (SUNTORY HOLDINGS LIMITED, priority 2014, published 2017).

Test system: NCI-H716 cells
Experiment: In vitro GLP-1 secretion-accelerating action: amount of active GLP-1 secreted (ELISA)
Type: cell-based
Settings: 1 hour; for Significant difference (p < 0.05) vs control group, amount of active GLP-1 secreted: 10 mM, Student's t-test; for Amount of active GLP-1 secreted (relative value to control group as 100), average value: cyclic dipeptide 10 mM with 10 μM Sitagliptin phosphate, group with no cyclic dipeptide = 100
Protocol: Among the cyclic dipeptides, 92 highly water-soluble cyclic dipeptides were used in the following experiment. In each well of a Poly-L-Lysine 96-well plate, NCI-H716 cells suspended in 100 μL of a DMEM (with 10% FBS, 2 mM glutamine, and 1% antibiotics added in advance) were seeded at 0.5×10^5 cells/well, and cultured in a CO2 incubator (manufactured by ESPEC CORP.) for 48 hours. After washing with PBS(+), 100 μL of a PBS(+) solution with each cyclic dipeptide at a final concentration of 10 mM and 10 μM of Sitagliptin phosphate added therein was added to the cells. After 1 hour, the resultant solution was recovered, and the amount of active GLP-1 in the solution was measured by using the ELISA kit. In the analysis, the amount of active GLP-1 for a group with no cyclic dipeptide added was defined as 100, and relative values thereto were used.

In the case of NC(=O)CC1NC(=O)C2CCCN2C1=O (stereo not drawn) [compound 201, cyclo-asparaginyl-proline], the “Significant difference (p < 0.05) vs control group, amount of active GLP-1 secreted” value (Table 4, Experiment 4) is reported as “Yes” and the “Amount of active GLP-1 secreted (relative value to control group as 100), average value” (Table 4, Experiment 4) is reported as 430.
CC(O)C1NC(=O)CNC1=O (stereo not drawn) [compound 116, Cyclo(Thr-Gly)] was tested, and the “Significant difference (p < 0.05) vs control group, amount of active GLP-1 secreted” value (Table 3, Experiment 3) was “No” and the “Amount of active GLP-1 secreted (relative value to control group as 100), average value” (Table 3, Experiment 3) was 146.
With O=C1N[C@@H](CO)C(=O)N[C@H]1CO [compound 1, Cyclo(Ser-Ser)] the “Significant difference (p < 0.05) vs control group, amount of active GLP-1 secreted” value (Table 1, Experiment 1) was “No” and the “Amount of active GLP-1 secreted (relative value to control group as 100), average value” (Table 1, Experiment 1) was 124.
NC(=O)CC[C@@H]1NC(=O)[C@H](CO)NC1=O [compound 136, Cyclo(Gln-Ser)] was tested, and the “Significant difference (p < 0.05) vs control group, amount of active GLP-1 secreted” value (Table 3, Experiment 3) was “No” and the “Amount of active GLP-1 secreted (relative value to control group as 100), average value” (Table 3, Experiment 3) was 251.
In the case of CC(O)C1NC(=O)C(CCCCN)NC1=O (stereo not drawn) [compound 143, Cyclo(Thr-Lys)], the “Significant difference (p < 0.05) vs control group, amount of active GLP-1 secreted” value (Table 3, Experiment 3) is reported as “No” and the “Amount of active GLP-1 secreted (relative value to control group as 100), average value” (Table 3, Experiment 3) is reported as 105.
For C[C@@H]1NC(=O)[C@H](CC(=O)O)NC1=O [compound 153, Cyclo(Asp-Ala)], the “Significant difference (p < 0.05) vs control group, amount of active GLP-1 secreted” value (Table 3, Experiment 3) was “No” and the “Amount of active GLP-1 secreted (relative value to control group as 100), average value” (Table 3, Experiment 3) was 94.
With NC(=O)CC[C@@H]1NC(=O)CNC1=O [compound 24, Cyclo(Gln-Gly)] the “Significant difference (p < 0.05) vs control group, amount of active GLP-1 secreted” value (Table 5, Experiment 5) was “No” and the “Amount of active GLP-1 secreted (relative value to control group as 100), average value” (Table 5, Experiment 5) was 89.
For C[C@H]1NC(=O)[C@@H]2CCCN2C1=O [compound 5, Cyclo(D-Ala-Pro)], the “Significant difference (p < 0.05) vs control group, amount of active GLP-1 secreted” value (Table 1, Experiment 1) was “No” and the “Amount of active GLP-1 secreted (relative value to control group as 100), average value” (Table 1, Experiment 1) was 113.
N=C(N)NCCC[C@@H]1NC(=O)[C@H](CCCNC(=N)N)NC1=O [compound 212, cyclo-arginyl-arginine] was tested, and the “Significant difference (p < 0.05) vs control group, amount of active GLP-1 secreted” value (Table 4, Experiment 4) was “Yes” and the “Amount of active GLP-1 secreted (relative value to control group as 100), average value” (Table 4, Experiment 4) was 1050.
For NCCCCC1NC(=O)C(CC(=O)O)NC1=O (stereo not drawn) [compound 100, Cyclo(Asp-Lys)], the “Significant difference (p < 0.05) vs control group, amount of active GLP-1 secreted” value (Table 3, Experiment 3) was “No” and the “Amount of active GLP-1 secreted (relative value to control group as 100), average value” (Table 3, Experiment 3) was 116.
For NC(=O)CCC1NC(=O)C2CCCN2C1=O (stereo not drawn) [compound 188, Cyclo(Gln-Pro)], the “Significant difference (p < 0.05) vs control group, amount of active GLP-1 secreted” value (Table 4, Experiment 4) was “No” and the “Amount of active GLP-1 secreted (relative value to control group as 100), average value” (Table 4, Experiment 4) was 132.
In the case of NC(=O)CC[C@@H]1NC(=O)CNC1=O [compound 36, Cyclo(Gln-Gly)], the “Significant difference (p < 0.05) vs control group, amount of active GLP-1 secreted” value (Table 5, Experiment 5) is reported as “No” and the “Amount of active GLP-1 secreted (relative value to control group as 100), average value” (Table 5, Experiment 5) is reported as 75.
For C[C@@H]1NC(=O)[C@H](CCC(N)=O)NC1=O [compound 23, Cyclo(Ala-Gln)], the “Significant difference (p < 0.05) vs control group, amount of active GLP-1 secreted” value (Table 5, Experiment 5) was “No” and the “Amount of active GLP-1 secreted (relative value to control group as 100), average value” (Table 5, Experiment 5) was 99.
For NCCCC[C@@H]1NC(=O)[C@H](CCC(=O)O)NC1=O [compound 97, Cyclo(Glu-Lys)], the “Significant difference (p < 0.05) vs control group, amount of active GLP-1 secreted” value (Table 3, Experiment 3) was “No” and the “Amount of active GLP-1 secreted (relative value to control group as 100), average value” (Table 3, Experiment 3) was 66.
In the case of CC(C)[C@@H]1NC(=O)[C@H](CCCCN)NC1=O [compound 99, cyclo-valyl-lysine], the “Significant difference (p < 0.05) vs control group, amount of active GLP-1 secreted” value (Table 3, Experiment 3) is reported as “Yes” and the “Amount of active GLP-1 secreted (relative value to control group as 100), average value” (Table 3, Experiment 3) is reported as 532.
CC1NC(=O)CNC1=O (stereo not drawn) [compound 121, Cyclo(Gly-Ala)] was tested, and the “Significant difference (p < 0.05) vs control group, amount of active GLP-1 secreted” value (Table 3, Experiment 3) was “No” and the “Amount of active GLP-1 secreted (relative value to control group as 100), average value” (Table 3, Experiment 3) was 153.
For CC(C)C[C@@H]1NC(=O)[C@@H]2CCCN2C1=O [compound 19, cyclo-leucyl-proline], the “Significant difference (p < 0.05) vs control group, amount of active GLP-1 secreted” value (Table 1, Experiment 1) was “Yes” and the “Amount of active GLP-1 secreted (relative value to control group as 100), average value” (Table 1, Experiment 1) was 173.
With CC[C@H](C)[C@@H]1NC(=O)[C@@H]2CCCN2C1=O [compound 47, Cyclo(Ile-Pro)] the “Significant difference (p < 0.05) vs control group, amount of active GLP-1 secreted” value (Table 2, Experiment 2) was “No” and the “Amount of active GLP-1 secreted (relative value to control group as 100), average value” (Table 2, Experiment 2) was 79.
With CC(C)C[C@@H]1NC(=O)CNC1=O [compound 21, Cyclo(Gly-Leu)] the “Significant difference (p < 0.05) vs control group, amount of active GLP-1 secreted” value (Table 5, Experiment 5) was “No” and the “Amount of active GLP-1 secreted (relative value to control group as 100), average value” (Table 5, Experiment 5) was 131.
With O=C1NC(Cc2cnc[nH]2)C(=O)NC1Cc1cnc[nH]1 (stereo not drawn) [compound 107, cyclo-histidyl-histidine] the “Significant difference (p < 0.05) vs control group, amount of active GLP-1 secreted” value (Table 3, Experiment 3) was “Yes” and the “Amount of active GLP-1 secreted (relative value to control group as 100), average value” (Table 3, Experiment 3) was 182.
In the case of NCCCCC1NC(=O)CNC1=O (stereo not drawn) [compound 96, cyclo-lysyl-glycine], the “Significant difference (p < 0.05) vs control group, amount of active GLP-1 secreted” value (Table 3, Experiment 3) is reported as “Yes” and the “Amount of active GLP-1 secreted (relative value to control group as 100), average value” (Table 3, Experiment 3) is reported as 133.
